Reference: patent US8778685B2 (priority 2009, dated 2014)

Tests used:
[1] = in vivo
[2] = no unit, species or route given; in mg/kg; cited from earlier work

N#CC(O)c1ccccc1 (stereo not drawn) [mandelonitrile]
times less toxic than sodium cyanide [1]: approximately 18
LD50 value [2]: 116

CC(C)(O)C#N [acetone cyanohydrin]
LD50 value [2]: 18.65
